Assay results as given in article PMC5988692, “AZ304, a novel dual BRAF inhibitor, exerts anti-tumour effects in colorectal cancer independently of BRAF genetic status” (British Journal of Cancer, 2018).
Read-outs that look alike come from different tables or passages of the source.

What was measured:
Assay in all cases: MTT proliferation assay
Format in all cases: cell-based
DiFi cells = settings: Homo sapiens, BRAF WT, KRAS WT
Description: (§1) The proliferation assays in selected colorectal cancer cell lines were measured using a 3-(4,5-dimethyl thiazol-2-yl)-2,5-diphenyl tetrazolium bromide (MTT) assay. First of all, cultured cells were seeded into 96-well plates (2000–5000 cells per well). After incubation for 24 h, the cells were pretreated with DMSO or AZ304 for 1 h. […] Cells were incubated for a further 48 or 72 h. For EGF stimulating assay, cells were incubated in reduced serum medium overnight and then treated with AZ304 or AZ304 + EGF (20 ng/ml) for 72 h. Twenty microliter of MTT solution (5 mg/ml) was added to each well followed by 4 h incubation at 37 °C. The cell culture medium was removed and the cells were lysed in 200 μl dimethylsulphoxide (DMSO) and the results were measured using a microplate reader (Model 550, Bio-Rad Laboratories, Hercules, CA, USA).

Caco-2 cells = settings: Homo sapiens, Caco-2, BRAF WT, KRAS WT
Description: as §1

RKO cells = settings: Homo sapiens, BRAF MT (V600E), KRAS WT
Description: as §1

HT-29 cells = settings: Homo sapiens, HT-29, BRAF MT (V600E), KRAS WT
Description: as §1

[1] = 48 h, read-out: GI50 (μM) of AZ304 48 h
[2] = 72 h, read-out: GI50 (μM) of AZ304 72 h

**Q.** `COc1ccc2c(Nc3cc(NC(=O)c4cccc(C(C)(C)C#N)c4)ccc3C)ncnc2c1` [AZ304] was tested. Which GI50 (DiFi cells; [1]) did it give?
**A.** 4.99 µM

**Q.** What about the GI50 (DiFi cells; [2]) of the same molecule?
**A.** 0.635 µM

**Q.** And the GI50 (Caco-2 cells; [1])?
**A.** 1.76 µM

**Q.** And the GI50 (Caco-2 cells; [2])?
**A.** 0.377 µM

**Q.** What about the GI50 (RKO cells; [1]) of the same molecule?
**A.** 4.54 µM

**Q.** What about the GI50 (RKO cells; [2]) of the same molecule?
**A.** 0.503 µM

**Q.** And the GI50 (HT-29 cells; [1])?
**A.** 3.9 µM

**Q.** What about the GI50 (HT-29 cells; [2]) of the same molecule?
**A.** 0.389 µM
